Test results reported in PMC9687798, “Atypical Substrates of the Organic Cation Transporter 1” (Biomolecules, 2022).
Like-named read-outs stand apart in the source and are kept apart here.

Columns and labels:
[1] = molecular target: T1, OCT3 (Homo sapiens, UniProt O75751); test: Cellular uptake ratio, OCT3-overexpressing HEK293 cells vs empty vector; assay type: cell-based
T1 construct: expressed in transfected cells; host or cells: HEK293, stably transfected; gift from Dr. Koepsell and Dr. Gorbulev (University of Würzburg)
T1 sequence (O75751 1-556): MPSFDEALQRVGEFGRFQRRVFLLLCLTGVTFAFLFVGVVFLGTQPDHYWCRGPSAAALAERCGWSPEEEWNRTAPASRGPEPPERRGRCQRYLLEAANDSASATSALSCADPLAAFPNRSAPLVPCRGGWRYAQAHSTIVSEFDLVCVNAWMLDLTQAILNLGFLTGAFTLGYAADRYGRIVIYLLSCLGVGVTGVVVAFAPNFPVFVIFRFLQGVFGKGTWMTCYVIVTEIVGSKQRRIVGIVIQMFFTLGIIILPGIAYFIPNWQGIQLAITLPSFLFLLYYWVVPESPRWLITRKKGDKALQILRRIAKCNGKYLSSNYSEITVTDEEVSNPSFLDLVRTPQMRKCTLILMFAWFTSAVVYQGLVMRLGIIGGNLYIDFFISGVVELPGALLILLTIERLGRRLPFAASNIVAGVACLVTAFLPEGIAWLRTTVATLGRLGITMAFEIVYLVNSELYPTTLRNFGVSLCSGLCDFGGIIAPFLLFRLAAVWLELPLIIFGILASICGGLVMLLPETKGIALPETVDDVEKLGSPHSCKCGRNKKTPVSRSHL
Description: (§1) The wild-type cell lines of OCT1 and OCT2, as well as the variant cell lines OCT1*2 and *3, were generated using the Flp-In system (Thermo Fisher Scientific, Darmstadt, Germany) as described in previous publications. The cell line overexpressing OCT3 was a kind gift from Dr. Koepsell and Dr. Gorbulev (University of Würzburg, Germany). Cells transfected with the empty pcDNA5/FRT vector were used for the transport experiments as a control cell line. All cells were cultured approximately up to passage 30.
(§2) Forty-eight hours before the transport experiments, 600,000 cells were plated on 12-well plates pre-coated with poly-D-lysine and incubated at 37 °C with 5% CO2. The prepared 12-well plate with cells was positioned on a heating plate pre-warmed to 37 °C. After removing the medium, the cells were washed with 37 °C HBSS+ (10 mM HEPES in Hank’s balanced salt solution, pH 7.4). Then, one pre-defined concentration of a substrate was added to each well. The incubation period was stopped by adding 2 mL of 4 °C HBSS+ and removing the cells from the heating plate. The cells were washed twice with 4 °C HBSS+. For cell lysis, the cells were incubated for 15 min with 500 µL of 80% acetonitrile (LGC Standards, Wesel, Germany), which contained a respective internal standard (Table 1).
(§3) For concentration-dependent transport, the cells were incubated with defined substrate concentrations (0.1, 1, 10, 30, 100, 300, 600, 1000 µM) for the respective pre-defined incubation times. […] The uptake by a transporter was normalised to the uptake by empty vector-transfected cells. […] The results of transport experiments were normalized to the total protein concentration per well. Total protein quantification was performed using a bicinchoninic acid assay with bovine serum albumin as standard.
(§4) The ratios of cellular uptake were calculated by dividing the total uptake of transporter-overexpressing cells by the total uptake into empty vector transfected cells. The concentration-dependent cellular net uptake was used for analysis of transport kinetics by subtracting for each substrate concentration the uptake of empty vector-transfected cells from the uptake of transporter-overexpressing cells. […] The intrinsic clearance Clint was expressed with the ratio of Vmax and KM.

[2] = molecular target: T2, human OCT1*1 (wild-type) (Homo sapiens, UniProt O15245); test: Cellular uptake ratio, OCT1-overexpressing HEK293 cells vs empty vector; assay type: cell-based
T2 sequence (O15245 1-554): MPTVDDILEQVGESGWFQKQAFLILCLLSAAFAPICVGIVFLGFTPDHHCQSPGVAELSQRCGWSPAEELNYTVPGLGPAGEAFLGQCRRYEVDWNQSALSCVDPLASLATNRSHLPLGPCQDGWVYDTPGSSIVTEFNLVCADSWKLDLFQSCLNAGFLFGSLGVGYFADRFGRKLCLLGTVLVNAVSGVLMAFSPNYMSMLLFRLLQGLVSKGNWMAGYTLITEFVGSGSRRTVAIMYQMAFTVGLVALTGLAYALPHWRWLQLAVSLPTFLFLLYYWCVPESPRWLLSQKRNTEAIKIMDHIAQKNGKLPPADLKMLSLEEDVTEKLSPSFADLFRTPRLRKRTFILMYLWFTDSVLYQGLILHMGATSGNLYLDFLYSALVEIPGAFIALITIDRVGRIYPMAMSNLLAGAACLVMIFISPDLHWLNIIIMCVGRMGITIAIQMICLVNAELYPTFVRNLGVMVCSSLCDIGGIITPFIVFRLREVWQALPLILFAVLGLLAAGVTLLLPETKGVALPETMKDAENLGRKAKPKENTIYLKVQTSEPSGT
Description: as §1, §2, §3, §4

[3] = molecular target: T2, human OCT1*1 (wild-type); test: Concentration-dependent uptake (transport kinetics) in HEK293 cells overexpressing OCT1 wild-type; settings: for Clint (±SEM): intrinsic clearance = ratio of Vmax and KM, OCT1 wild-type
[4] = molecular target: T3, wild-type human OCT2 (Homo sapiens, UniProt O15244); test: Cellular uptake ratio, OCT2-overexpressing HEK293 cells vs empty vector; assay type: cell-based
T3 sequence (O15244 1-555): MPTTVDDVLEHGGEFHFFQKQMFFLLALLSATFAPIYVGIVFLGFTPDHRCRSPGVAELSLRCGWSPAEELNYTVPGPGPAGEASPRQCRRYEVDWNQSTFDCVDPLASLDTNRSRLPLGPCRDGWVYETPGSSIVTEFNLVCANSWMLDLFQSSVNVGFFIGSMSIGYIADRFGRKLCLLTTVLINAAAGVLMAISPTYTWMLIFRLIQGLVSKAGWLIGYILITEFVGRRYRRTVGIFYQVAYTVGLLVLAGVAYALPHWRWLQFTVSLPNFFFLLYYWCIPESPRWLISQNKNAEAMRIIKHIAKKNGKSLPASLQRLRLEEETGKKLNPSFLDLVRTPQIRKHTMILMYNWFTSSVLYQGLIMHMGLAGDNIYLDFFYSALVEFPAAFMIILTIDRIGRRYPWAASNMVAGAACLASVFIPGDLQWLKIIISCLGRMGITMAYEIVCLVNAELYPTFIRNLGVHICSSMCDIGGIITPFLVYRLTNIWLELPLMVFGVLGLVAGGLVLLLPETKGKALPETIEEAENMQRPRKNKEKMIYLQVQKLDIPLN
Description: as §1, §2, §3, §4

[5] = based on ratio uptake data at 1 µM
[6] = based on ratio uptake data at 100 µM (footnote *)
[7] = good >5, poor 1–5, non-substrate <1 µL/mg protein/min or uptake not above empty vector
[8] = net uptake (OCT1 minus empty vector), HEK293, 0.1-1000 µM substrate, Michaelis–Menten

Question: `Nc1nc2c(ncn2COCCO)c(=O)[nH]1` [Acyclovir, acyclovir] was tested. Which OCT3 transport category [1, 5] did it give?
Answer: 0 (no transport by OCT1, OCT2, and OCT3 occurred (i.e., no kinetic parameters or uptake ratio <2 without significance))

Question: With `C[C@H](CS)C(=O)N1CCC[C@H]1C(=O)O` [Captopril, captopril] as the compound, how does the OCT3 transport category [1, 5] read?
Answer: 0 (no transport by OCT1, OCT2, and OCT3 occurred (i.e., no kinetic parameters or uptake ratio <2 without significance))

Question: How did the OCT1 transport category [2, 6] turn out when `C[C@@](Cc1ccc(O)c(O)c1)(NN)C(=O)O` [Carbidopa, carbidopa] was run?
Answer: 0 (no transport by OCT1, OCT2, and OCT3 occurred (i.e., no kinetic parameters or uptake ratio <2 without significance))

Question: What about the “OCT1 substrate classification from concentration-dependent uptake” value (from here on “OCT1 substrate classification”) [3, 7] of the same compound?
Answer: linear increase in total uptake of both cell lines

Question: And the OCT3 transport category [1, 6]?
Answer: 0 (no transport by OCT1, OCT2, and OCT3 occurred (i.e., no kinetic parameters or uptake ratio <2 without significance))

Question: What about the OCT2 transport category [4, 6] of the same compound?
Answer: 0 (no transport by OCT1, OCT2, and OCT3 occurred (i.e., no kinetic parameters or uptake ratio <2 without significance))

Question: With `Nc1ccn([C@@H]2O[C@H](CO)[C@@H](O)[C@@H]2O)c(=O)n1` [Cytarabine, cytarabine] as the compound, how does the “OCT1 substrate classification” value [3] read?
Answer: none of the four antimetabolites showed uptake by OCT1

Question: How did the “OCT1 substrate classification” value [3, 7] turn out when `Nc1ncn([C@H]2C[C@H](O)[C@@H](CO)O2)c(=O)n1` [Decitabine, decitabine] was run?
Answer: none of the four antimetabolites showed uptake by OCT1

Question: For `C=C1[C@H](CO)[C@@H](O)C[C@@H]1n1cnc2c(=O)[nH]c(N)nc21` [Entecavir, entecavir], which OCT3 transport category [1, 5] is on record?
Answer: 0 (no transport by OCT1, OCT2, and OCT3 occurred (i.e., no kinetic parameters or uptake ratio <2 without significance))

Question: How did the OCT3 transport category [1, 5] turn out when `Nc1nc(O)c2ncn(COC(CO)CO)c2n1` [Ganciclovir, ganciclovir] was run?
Answer: 0 (no transport by OCT1, OCT2, and OCT3 occurred (i.e., no kinetic parameters or uptake ratio <2 without significance))

Question: `Nc1ccn([C@@H]2O[C@H](CO)[C@@H](O)C2(F)F)c(=O)n1` [Gemcitabine, gemcitabine] was tested. Which “OCT1 substrate classification” value [3, 7] did it give?
Answer: none of the four antimetabolites showed uptake by OCT1

Question: How did the “uptake by OCT1 (normalised to empty vector)” value [2] turn out when `Cc1ccc(NC(=O)c2ccc(CN3CCN(C)CC3)cc2)cc1Nc1nccc(-c2cccnc2)n1` [Imatinib, imatinib] was run?
Answer: did not show uptake by OCT1

Question: Which results are given for `C[C@H]1COc2c(N3CCN(C)CC3)c(F)cc3c(=O)c(C(=O)O)cn1c23` [Levofloxacin, levofloxacin]?
Answer: OCT1 substrate classification from concentration-dependent uptake [3]: poor substrate of OCT1; Clint (±SEM) [3]: 3.77 ± 2.77 µL/mg Protein/min; OCT3 transport category [1, 5]: 0 (no transport by OCT1, OCT2, and OCT3 occurred (i.e., no kinetic parameters or uptake ratio <2 without significance))

Question: For `C[n+]1ccc(-c2ccccc2)cc1` [MPP^+, 1-methyl-4-phenylpyridinium], which “uptake ratio by OCT1 (normalised to empty vector)” value ([2]; 1 µM and 100 µM substance) is on record?
Answer: up to 30

Question: What about the OCT1 transport category [2, 5] of the same compound?
Answer: ++ (very good substrates of OCTs that have an intrinsic clearance >15 or show an uptake ratio >10)

Question: What about the “Clint (±SEM)” value [3] of the same compound?
Answer: 20.8 ± 5.04 µL/mg Protein/min

Question: And the “Vmax (±SEM)” value [3, 8]?
Answer: 2263 ± 184 pmol/mg Protein/min

Question: And the Km ([3]; read-out: KM (±SEM), net uptake (OCT1 minus empty vector), HEK293, 0.1-1000 µM substrate, Michaelis–Menten)?
Answer: 108 ± 17.4 µM

Question: And the “uptake ratio by OCT3 (normalised to empty vector)” value ([1]; 1 µM and 100 µM substance)?
Answer: relevant uptake

Question: What about the OCT3 transport category [1, 5] of the same compound?
Answer: ++ (very good substrates of OCTs that have an intrinsic clearance >15 or show an uptake ratio >10)

Question: What about the OCT2 transport category [4, 5] of the same compound?
Answer: ++ (very good substrates of OCTs that have an intrinsic clearance >15 or show an uptake ratio >10)

Question: How did the OCT1 transport category [2, 5] turn out when `C[N+]1(C)CCC[C@H]1C(=O)[O-]` [Stachydrine, stachydrine] was run?
Answer: 0 (no transport by OCT1, OCT2, and OCT3 occurred (i.e., no kinetic parameters or uptake ratio <2 without significance))

Question: And the “OCT1 substrate classification” value [3, 7]?
Answer: very poor OCT1-mediated transport

Question: And the “Vmax (±SEM)” value [3, 8]?
Answer: 238 ± 134 pmol/mg Protein/min

Question: And the OCT3 transport category [1, 5]?
Answer: 0 (no transport by OCT1, OCT2, and OCT3 occurred (i.e., no kinetic parameters or uptake ratio <2 without significance))

Question: And the OCT2 transport category [4, 5]?
Answer: 0 (no transport by OCT1, OCT2, and OCT3 occurred (i.e., no kinetic parameters or uptake ratio <2 without significance))

Question: `O=c1ncccn1[C@@H]1O[C@H](CO)[C@@H](O)[C@H]1O` [Zebularine, zebularine] was tested. Which “OCT1 substrate classification” value [3, 7] did it give?
Answer: none of the four antimetabolites showed uptake by OCT1
